We go through 15 compounds from article PMC11472313, “Development of Fragment-Based Inhibitors of the Bacterial Deacetylase LpxC with Low Nanomolar Activity” (Journal of Medicinal Chemistry, 2024).

Converted amounts (≈) assume the structure as drawn. Like-named read-outs stand apart in the source and are kept apart here.

The subject of one experiment is E. coli LpxC (EcLpxC). The conditions noted are these: cited from earlier work.
Experiment [1] relates to P. aeruginosa LpxC (PaLpxC). The conditions noted are these: cited from earlier work.
For experiment [2], the target named is T1, LasB (Pseudomonas aeruginosa, UniProt Q02RJ6).
T1 construct: The elastase LasB of P. aeruginosa is a secreted metalloprotease; endogenous in cells; host or cells: P. aeruginosa PA14 culture supernatant
The conditions noted are these: cited from earlier work.

Experiment [3] concerns E. coli BL21(DE3). The conditions noted are these: cited from earlier work.
For experiment [4], the target named is T2, E. coli LpxC C63A (Escherichia coli, UniProt P0A725, C63A).
T2 construct: made in house; host or cells: E. coli BL21(DE3)
The conditions noted are these: versus (2R,3S)-10; cited from earlier work.

Experiment [5] has as its system K. pneumoniae ATCC 700603. As to the kind of experiment: disc diffusion assay. Format: cell-based, Klebsiella pneumoniae. The conditions noted are these: 0.15 μmol per 6 mm disc. How it is done:
(§1) In the performed disc diffusion assays, indole derivatives (S)-13h, (S)-13i, and (S)-13j caused promising halos of growth inhibition.
(§2) The disc diffusion assays against E. coli TOP10 (Thermo Fisher, Waltham, USA), E. coli ATCC 35218, K. pneumoniae ATCC 700603, and P. aeruginosa ATCC 27853 were performed as follows: the bacteria were grown overnight on a Columbia blood agar plate (Oxoid, Basingstoke, UK), and one colony was suspended in sterile saline to yield a suspension of 0.5 McFarland standard. Using a sterile swab, the suspension was spread evenly onto Mueller–Hinton agar (Oxoid, Basingstoke, UK). 0.15 μmol of each compound (dissolved in 10 μL DMSO) was applied onto circular 6 mm diameter filter paper disks, which were then placed on the agar. After incubating the agar plates for 20 h at 37 °C, the diameter of the zone of growth inhibition was measured for each compound.
On the technique in general: In agar diffusion tests the substance spreads into inoculated agar from a disc or well.

The target in experiment [6] is T1, LasB. As to the kind of experiment: FRET-based LasB in vitro inhibition assay. It counts as biochemical, P. aeruginosa PA14. How it is done: Purification of LasB from P. aeruginosa PA14 supernatant and the subsequent performance of the FRET-based in vitro inhibition assay was performed as described previously.[66] The TACE (ADAM-17) inhibitor screening kit was purchased from Sigma-Aldrich (Saint Louis, MO). MMPs 1–3 along with the SensoLyte 520 Generic MMP Activity Kit Fluorimetric were purchased from AnaSpec (Fremont, CA, USA). The assays were performed according to the guidelines of the respective manufacturer. Fluorescence signals were measured using a CLARIOstar plate reader (BMG Labtech, Ortenberg, Germany).

Experiment [7] concerns E. coli D22. Kind of experiment: MIC, broth microdilution. It counts as cell-based. The conditions noted are these: Escherichia coli, 20 h, 37 °C, LB. How it is done: (§3) Besides measuring the inhibitory activities toward E. coli LpxC C63A, the antibacterial activities of the synthesized hydroxamic acids were evaluated by determining their minimal inhibitory concentrations (MIC) in broth dilution tests as well as by performing disc diffusion assays (Table 1).
(§4) The MIC values of the compounds were determined by means of the microdilution method using 96-well plates.
(§5) The overnight suspension was diluted 1:1000 in fresh LB. 10 μL of a 2-fold dilution series of the compounds in DMSO and 90 μL of LB were dispensed to each well of a 96-well plate. Then, 100 μL of the inoculated medium was added, resulting in 5 × 10^5 cfu mL^–1, 5% DMSO, and a final concentration range of the test compounds between 64 and 0.016 μg mL^–1. The plates were incubated for 20 h at 37 °C. The MIC was defined as the lowest concentration of the compounds that prevented visible growth after incubation. Each assay was performed at least three times on separate days.
For orientation: Dilution methods test growth across graded concentrations, often in twofold steps.

Experiment [8] deals with E. coli BL21(DE3). Kind of experiment: MIC, broth microdilution. It counts as cell-based. The conditions noted are these: Escherichia coli, 20 h, 37 °C, LB. As to the method:
as §3, §4, §5

A further experiment concerns P. aeruginosa ATCC 27853. As to the kind of experiment: disc diffusion assay. Format: cell-based. The conditions noted are these: 0.15 μmol per 6 mm disc. As to the method:
as §1, §2

Another experiment deals with E. coli ATCC 35218. Kind of experiment: disc diffusion assay. Format: cell-based. The conditions noted are these: 0.15 μmol per 6 mm disc. As to the method: as §1, §2
A further experiment concerns E. coli TOP10. Kind of experiment: disc diffusion assay. It counts as cell-based. The conditions noted are these: 0.15 μmol per 6 mm disc. As to the method: as §1, §2
The test system of experiment [9] is E. coli D22. Kind of experiment: disc diffusion assay. Format: cell-based. The conditions noted are these: 0.15 μmol per 6 mm disc. How it is done: as §3
(§6) The disc diffusion assays against E. coli BL21(DE3) and the defective strain E. coli D22 were performed as follows: liquid cultures of the bacteria were grown overnight in lysogeny broth (LB)[73] at 37 °C and 200 rpm. 150 μL of an overnight cell suspension was spread evenly onto LB agar plates. 0.15 μmol of each compound (dissolved in 10 or 15 μL DMSO) were applied onto circular filter paper (Ø = 6 mm, Cytiva). Pure DMSO, serving as a negative control, and CHIR-090, serving as a positive control, were also spotted. The agar plates were incubated overnight at 37 °C, and the diameter of the zone of growth inhibition was measured for each compound. Each assay was performed at least three times on separate days.

In experiment [10] the test system is E. coli BL21(DE3). As to the kind of experiment: disc diffusion assay. It counts as cell-based. The conditions noted are these: 0.15 μmol per 6 mm disc. How it is done:
as §3, §6

Experiment [11] concerns the target T2, E. coli LpxC C63A. Kind of experiment: fluorescence-based E. coli LpxC C63A enzyme inhibition assay. Format: biochemical. The conditions noted are these: Ki E. coli LpxC C63A, from IC50 via Cheng–Prusoff. As to the method: In order to determine the inhibitory activities of the compounds of interest toward E. coli LpxC, a fluorescence-based enzyme assay was deployed, in which the formed deacetylated natural product UDP-3-O-[(R)-3-hydroxymyristoyl]glucosamine (2) is transformed into a fluorescent isoindole with o-phthaldialdehyde and 2-mercaptoethanol.[48],[49] […] The KM of E. coli LpxC C63A was determined experimentally using a mass spectrometry-based LpxC assay (Figure S8, Supporting Information, vide infra).
A fluorescence-based microplate assay for LpxC activity was performed as described by Clements et al.[48] The wells in a black, nonbinding, 96-well fluorescence microplate (Greiner Bio One, Frickenhausen) were filled with 93 μL of 26.9 μM UDP-3-O-[(R)-3-hydroxymyristoyl]-N-acetylglucosamine in assay buffer [40 mM sodium morpholinoethanesulfonic acid (pH 6.0), 80 μM dithiothreitol, 0.02% Brij 35]. In order to assay the inhibitors at final concentrations from 20 nM up to 20 μM, 2 μL of a respective dilution of the compounds in DMSO were added. The addition of 5 μL of a solution of purified LpxC (10 μg mL^–1) in assay buffer led to final concentrations of 25 μM UDP-3-O-[(R)-3-hydroxymyristoyl]-N-acetylglucosamine, 15 nM E. coli LpxC C63A, 2% DMSO, and from 20 nM up to 20 μM inhibitor. The microplate was incubated for 30 min at 37 °C in a plate shaker. Then, the biochemical reaction was stopped by adding 40 μL of 0.625 M sodium hydroxide. The reaction mixture was further incubated for 10 min and neutralized by adding 40 μL of 0.625 M acetic acid. The deacetylated product UDP-3-O-[(R)-3-hydroxymyristoyl]glucosamine was converted into a fluorescing isoindole by adding 120 μL of an o-phthaldialdehyde-2-mercaptoethanol solution, which was prepared by dissolving 10 mg of o-phthaldialdehyde in 1 mL of methanol, diluting the mixture with 24 mL of a sodium borate buffer (0.1 M), and finally adding 2.5 μL of 2-mercaptoethanol.[49] Fluorescence was measured with a TriStar^2 S LB 942 plate reader (Berthold, Bad Wildbad) at 340 nm excitation and 460 nm emission wavelengths. Each assay was performed at least three times on separate days. The IC50 values were calculated via Probit-log concentration graphs with the aid of the software Origin and were subsequently converted into Ki values using the Cheng–Prusoff equation.[75],[76]

T1 sequence (Q02RJ6 198-498): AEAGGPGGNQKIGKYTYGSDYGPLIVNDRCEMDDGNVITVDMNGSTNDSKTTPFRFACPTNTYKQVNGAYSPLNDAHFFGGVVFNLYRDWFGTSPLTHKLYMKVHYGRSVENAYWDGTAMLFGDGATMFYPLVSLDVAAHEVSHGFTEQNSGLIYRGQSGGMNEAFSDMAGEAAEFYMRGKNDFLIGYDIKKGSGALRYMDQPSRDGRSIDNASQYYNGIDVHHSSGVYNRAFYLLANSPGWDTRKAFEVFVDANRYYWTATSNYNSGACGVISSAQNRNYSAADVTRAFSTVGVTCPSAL
T2 sequence (P0A725 whole entry C63A): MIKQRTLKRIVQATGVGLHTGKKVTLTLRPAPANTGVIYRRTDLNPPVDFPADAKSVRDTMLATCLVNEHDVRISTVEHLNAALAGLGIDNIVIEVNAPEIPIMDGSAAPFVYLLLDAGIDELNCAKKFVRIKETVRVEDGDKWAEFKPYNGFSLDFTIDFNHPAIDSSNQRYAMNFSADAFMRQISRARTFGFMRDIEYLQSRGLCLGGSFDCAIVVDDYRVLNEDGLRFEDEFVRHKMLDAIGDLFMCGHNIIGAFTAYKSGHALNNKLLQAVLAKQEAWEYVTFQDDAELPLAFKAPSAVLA

In the case of `O=c1ccn([C@@H]2O[C@H](CO/N=C/c3ccc(O)c(O)c3O)[C@@H](O)[C@H]2O)c(=O)[nH]1` [1-68A, 1–68A], in the experiment on E. coli LpxC (EcLpxC), the IC50 (usually the concentration at which inhibition is half-maximal) is 27 µM.

Turning to `CC(O)(c1ccc(O)cc1)C(NC(=O)c1ccc(C#CC#Cc2ccc(N)cc2)cc1)C(=O)NO` (stereo not drawn) [3b], the Ki – broadly, a measure of affinity in units of concentration, obtained from inhibition or displacement – in the experiment with E. coli LpxC (EcLpxC) was 0.024 nM.

`C[C@@](CO)(OCc1ccc(-c2ccccc2)cc1)C(=O)NO` [5a]: the IC50 in experiment [1] is 22 nM.

Regarding `C[C@@](OCc1ccc(-c2ccccc2)cc1)(C(=O)NO)[C@@H](O)c1ccccn1` [5b], the IC50 in experiment [1] is 15 nM.

With `C[C@@](OCc1ccc(-c2ccccc2)cc1)(C(=O)NO)[C@@H](O)c1cnc[nH]1` [5c], the IC50 in [1] is 0.8 nM.

Turning to `Cc1cc([C@H](O)[C@](C)(OCc2ccc(-c3ccccc3)cc2)C(=O)NO)no1` [5d], in experiment [1], the IC50 is 0.4 nM.

For `CCc1ccc(-c2ccc(C(=O)N[C@H](C(=O)NO)[C@@H](C)N)cc2)cc1` [7a], in [1], the “PaLpxC: IC50” value was 0.5 ng/mL.

On to `CCc1ccc(-c2ccc(C(=O)N[C@H](C(=O)NO)[C@@H](C)NCC(=O)O)cc2)cc1` [7b], for which, in [1], the “PaLpxC: IC50” value was 0.4 ng/mL.

With `CCc1ccc(-c2ccc(C(=O)N[C@H](C(=O)NO)[C@@H](C)NCc3ccccn3)cc2)cc1` [7d], the “PaLpxC: IC50” value in experiment [1] was 41 ng/mL.

On to `O=C(NO)[C@H](OCc1ccc(C#Cc2ccc(CN3CCOCC3)cc2)cc1)[C@H](O)COCc1ccccc1` [(2R,3R)-10], for which the “LasB Inhibition at 20 μM” value on LasB [2] is “n.i. (n.i.: <10% inhibition)”.

For `O=C(NO)[C@H](OCc1ccc(C#Cc2ccc(CN3CCOCC3)cc2)cc1)[C@@H](O)COCc1ccccc1` [(2R,3S)-10], the “MIC E. coli BL21(DE3)” value in the experiment with E. coli BL21(DE3) [3] is >64 µg/mL. Further, at LasB [2], the “LasB Inhibition at 20 μM” value was “n.i. (n.i.: <10% inhibition)”.

Regarding `O=C(NO)[C@@H](OCc1ccc(C#Cc2ccc(CN3CCOCC3)cc2)cc1)[C@@H](O)COCc1ccccc1` [(2S,3S)-10], in the experiment with E. coli BL21(DE3) [3], the “MIC E. coli BL21(DE3)” value was 4.0 µg/mL (≈ 7.54 µM). The “fold higher LpxC inhibitory activity than its (2R)-configured diastereomer” value on E. coli LpxC C63A [4] is reported as “about 3 fold”.

As to `Cc1noc(C)c1COC[C@H](O)[C@H](OCc1ccc(C#Cc2ccc(CN3CCOCC3)cc2)cc1)C(=O)NO` [(2S,3S)-40], on LasB [2], the “LasB Inhibition at 20 μM” value is reported as “n.i. (n.i.: <10% inhibition)”.

For the compound `O=C(NC[C@H](OCc1ccc(C#Cc2ccc(CN3CCOCC3)cc2)cc1)C(=O)NO)c1ccc(-c2ccccc2)cc1` [(S)-13b], the “Inhibition zone K. pneumoniae ATCC 700603” value in experiment [5] is <6 mm. For the same compound, on LasB [6] (20 μM), the “LasB Inhibition at 20 μM” value was “little to no inhibitory activity”. The inhibition (in general, the share of the control response that was lost under treatment) at 20 µM on LasB [6] (read-out: LasB Inhibition at 20 μM) is < 10%. Moreover, the MIC – broadly, the lowest concentration found to suppress growth – against E. coli D22 [7] is 0.13 µg/mL (≈ 0.22 µM); against E. coli BL21(DE3) [8], > 16 µg/mL. Besides, in the experiment with P. aeruginosa ATCC 27853, the “Inhibition zone P. aeruginosa ATCC 27853” value is <6 mm. Besides, the “Inhibition zone E. coli ATCC 35218” value in the experiment with E. coli ATCC 35218 is <6 mm. For the same compound, the “Inhibition zone E. coli TOP 10” value in the experiment on E. coli TOP10 is reported as <6 mm. For the same compound, the “Inhibition zone E. coli D22” value in the experiment with E. coli D22 [9] was determined as 11.2 ± 2.9 mm. The “Inhibition zone E. coli BL21(DE3)” value with E. coli BL21(DE3) [10] is on record as ≤6 mm. Also, the Ki on E. coli LpxC C63A [11] is > 2540 nM.

Regarding `CC(O)C(NC(=O)c1ccc(C#CC#Cc2ccc(N)cc2)cc1)C(=O)NO` (stereo not drawn) [LPC-011], in the experiment on E. coli LpxC (EcLpxC), the Ki is 0.039 nM.
